{"source": "patent US20230076766A1", "about": "“METHOD FOR TREATMENT OF ROSACEA IN PATIENTS AGED 35-64 YEARS” (Sol-Gel Technologies Ltd., priority 2021, published 2023)", "origin": "cited, not measured here", "tested_on": "rosacea lesions", "conditions": "BPO as the sole active agent", "data": [{"smiles": "O=C(OOC(=O)c1ccccc1)c1ccccc1", "note": "[BPO, Benzoyl peroxide]", "values": [{"measurement": "response of rosacea lesions", "value": "unresponsive"}]}]}
